Test results reported in paper PMC6996304, “Tumor gene therapy by systemic delivery of plasmid DNA with cell‐penetrating peptides” (FASEB bioAdvances, 2018).
“Also recorded” adds a separate entry of the source.

Assays:
[1] = tested on: BALB/c mice bearing subcutaneous Neuro2a tumors; test: Reporter gene delivery in vivo (CPP/pLuc2, luciferase in tissues); set-up: species or system mouse; details: for tumor specificity of reporter gene induction (luciferase levels in tissues): one iv dose of CPP/pLuc2 at CR4, plasmid 0.8 mg/kg, PEGylation rate 50%, tissues 24 h after injection
Description: (§1) For in vivo studies, the plasmid dose was 0.8 mg/kg per animal; the pDNA was mixed with the CPP at CR 4 in MQ water, keeping the final complex volume at 100 μL. After 40‐minute incubation, 100 μL of 10% glucose was added to the complexes and injected immediately via tail vein. The luciferase encoding plasmid used in reporter gene experiments in vivo was p‐CMV‐Luc2, marked as pLuc2 in the text, which is optimized for in vivo use.
(§2) If not stated otherwise, the PEGylation rate of peptides in the CPP/pDNA complexes was 50% in all in vivo experiments.
(§3) Mouse Neuro2a and HT1080 tumor xenografts were induced by resuspending 1 × 10^6 cells in 100 μL volume of ice‐cold un‐supplemented DMEM and implanting the cell suspension subcutaneously to the right flank of the mouse (Neuro2a: 4‐ to 6‐week‐old BALB/c; HT1080: Hsd:Athymic Nude‐Foxn1nu female, 4‐6 weeks old, Harlan, UK). The 4T1 orthotopic tumors were induced by injecting 5 × 10^4 cells in 50 μL of ice‐cold un‐supplemented RPMI into the fourth mammary fat pad of 4‐ to 8‐week‐old female BALB/c mice.
Twenty‐four hours after the intravenous administration of CPP/pLuc2 complexes, the mice bearing Neuro2a tumors were sacrificed by cervical dislocation and tissues were harvested and snap‐frozen on dry ice. The tissues were homogenized using Precellys®24‐Dual homogenization system (Bertin Technologies, France) and lyzed with 1 × Promega lysis buffer (Promega). Luminescence was analyzed as described in in vitro transfection methods section.

Neuro2a cells [2] = test: In vitro transfection of CPP/pGL3 complexes, luciferase activity, with and without MMP-2 treatment; assay type: cell-based, mouse; details: CPP/pGL3 complexes CR3 incubated with MMP-2 (3.8 ng/μL) 37 °C 40 min before transfection, 24 h, Figure 1B
Description: CPP/pDNA nanoparticles for cell culture assays were prepared by mixing plasmid DNA (0.5 μg per well of a 24‐well plate) with CPPs, at CPP/pDNA charge ratio 3 (CR3) in MQ water with final volume of 105 μL, followed by a 40‐minute incubation at room temperature. pGL3 Control (Promega, Stockholm, Sweden) was used as the luciferase encoding plasmid since it is best suitable for in vitro use.
Twenty‐four hours before the experiment 3 × 10^4 Neuro2a cells were seeded onto 24‐well plates. Peptide/pDNA complexes at CR3 were prepared as described above. The transfection mixture was added to cells containing full media, and it made up 1/10 of the total cell medium volume during the time of transfection. Lipofectamine™ 2000 (Invitrogen, Carlsbad, CA) was used according to the manufacturer's protocol and added to the cells in serum‐containing medium. After 4‐hour incubation with the complexes, an additional 1 mL of fresh medium was added to the cells and incubated for an additional 20 hours. Thereafter, the media was removed, cells were lyzed with 100 μL 0.1% Triton X‐100 in PBS for 15 minutes at 4°C. Luciferase activity was measured using Promega's luciferase assay (Luciferase Assay System, Promega) according to the manufacturer's protocol on GLOMAX™ 96 microplate luminometer (Promega) and normalized to protein content, which was measured with the BioRad Protein Assay (Hercules, CA) according to the manufacturer's protocol.
To study the effect of MMP‐2 cleavage on transfection efficiency, active recombinant MMP‐2 enzyme (0.1 mg/mL, Calbiochem, Germany) was added to the CPP/pDNA complexes in MQ (final MMP‐2 concentration 3.8 ng/μL), and incubated at 37°C for 40 minutes prior transfection.

tumors = details: systemic reporter gene plasmid delivery; cited from earlier work
Description: In a previous paper MMP‐activatable CPPs PepFect144 (PF144), PepFect145 (PF145), and PepFect146 (PF146) were designed, where the cell penetration ability of the CPPs was reversibly masked by attaching a PEG molecule to the C‐terminus of the peptides via an MMP‐2/‐9 cleavable linker. […] Although plasmid DNA has been successfully used in combination with small molecule therapeutics,31, 32 achieving a clinical effect by plasmid delivery ...

Neuro2a cells [3] = details: CPP/pLuc2 CR3, 0.1 μg pDNA, 4 h at 37 °C in 50% FBS (MQ for controls), then transfection of Neuro2a cells, luciferase read-out; Figure 2A
Description: The stability of the CPP/pDNA nanoparticles to degradation and dissociation by components found in serum was assessed by reporter gene expression in cells after 4 hours incubation of CPP/pLuc2 complexes with 50% FBS. Complexes were formed as described previously, with 0.1 μg pDNA (CR 3), and incubated at room temperature for 40 minutes. After this, FBS (or MQ for controls) was added to the complexes, and the mixture incubated at 37°C for 4 hours (final FBS concentration 50%). For transfection, 1 × 10^4 Neuro2a cells were seeded to transparent 96‐well plates in supplemented DMEM media 24 hours before experiment. On the day of the experiment, the cells were transfected and luciferase expression analyzed as described in previous section (In vitro transfection).

[4] = Heparin displacement assay (PicoGreen); assay type: physicochemical; details: CPP/pLuc2 CR3, 0.1 μg pDNA per well, MQ water, heparin 30 min 37 °C, 100% = naked pDNA, Figure 2B
Description: Accessibility of pDNA in complexes formed between pDNA and CPPs was assessed by Quant‐iT™ PicoGreen® (Thermo Fisher Scientific) assay in mQ water. CPP/pLuc2 nanoparticles at CR3 were prepared as described previously, and transferred to black 96 well plates (0.1 μg of pDNA per well). Heparin solution was added into the wells and incubated at 37°C for 30 minutes. For detection, PicoGreen® was added to the wells, and incubated for 20 minutes. Fluorescence was measured by fluorimeter (λex = 492 nm, λem = 535 nm) (SynergyMx, BioTek).

orthotopic 4T1 tumors = test: Tumor growth reduction study, orthotopic 4T1 breast tumor model; assay type: in vivo, mouse; details: BALB/c mice, orthotopic 4T1, treatment from 1 day after implantation, CPP/pshVEGF CR4, 0.8 mg/kg every other day, three doses, n = 10; Figure 3B
Description: as §1, §2, §3
(§4) Before treatment, the mice were assigned into six groups of 10. CPP/pshVEGF treatment for HT1080 tumor‐bearing animals was started at the first appearance of tumor growth (tumor size of approximately 100 mm^3). […] The tumor sizes were measured with calipers three times a week. […]

sc HT1080 tumors = test: Tumor growth reduction study, HT1080 fibrosarcoma model; assay type: in vivo, mouse; details: nude athymic mice, sc HT1080, CPP/pshVEGF CR4, 0.8 mg/kg every other day, three doses (two iv, third ip), n = 10, compared to pshVEGF alone; Figure 3A
Description: as §1, §2, §3, §4

[5] = target: active human recombinant MMP-2 enzyme (Homo sapiens, UniProt P08253)
Sequence of active human recombinant MMP-2 enzyme (P08253 110-660): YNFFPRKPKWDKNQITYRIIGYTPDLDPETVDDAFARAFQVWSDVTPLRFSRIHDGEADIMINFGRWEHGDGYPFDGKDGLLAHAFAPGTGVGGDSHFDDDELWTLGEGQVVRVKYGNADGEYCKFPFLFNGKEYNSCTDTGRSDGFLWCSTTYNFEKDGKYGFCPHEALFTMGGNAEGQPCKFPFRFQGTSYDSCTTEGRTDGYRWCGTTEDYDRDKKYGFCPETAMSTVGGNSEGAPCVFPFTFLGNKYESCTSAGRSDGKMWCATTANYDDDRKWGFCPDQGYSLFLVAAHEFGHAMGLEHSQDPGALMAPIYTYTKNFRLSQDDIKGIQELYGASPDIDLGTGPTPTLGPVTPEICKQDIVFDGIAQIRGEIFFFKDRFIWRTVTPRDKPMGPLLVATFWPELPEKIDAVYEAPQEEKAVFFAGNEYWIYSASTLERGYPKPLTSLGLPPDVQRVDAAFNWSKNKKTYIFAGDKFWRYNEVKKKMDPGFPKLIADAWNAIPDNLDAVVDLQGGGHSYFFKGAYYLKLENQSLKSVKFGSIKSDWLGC
Description: Cleavage assay of MMP-2 cleavable CPPs that contain iRGD. The peptides were incubated with
The mixture was then analyzed with RP-UPLC (C18 reverse phase column, eluted with 20-
80% acetonitrile in water, 0.1% TFA). […] Enzyme digestion
products were confirmed by MALDI-ToF mass spectrometry.
Peptide cleavability by MMP-2
To assess the cleavability of iRGD-modified CPPs by MMP-2, the peptides were incubated
with recombinant MMP-2 (0.1 mg/ml, Calbiochem, Germany) in MQ water for 40 minutes at
37°C and analyzed with UPLC.

| Substance | tumor specificity of reporter gene induction (luciferase levels in tissues) ([1]; Figure 1C) | transfection efficiency after incubation with MMP-2 enzyme (enzyme-dependent activation) (Neuro2a cells [2]) | tissue/tumor specificity of plasmid DNA delivery in vivo (tumors) | sensitivity of CPP/pDNA nanoparticles to serum treatment (transfection efficiency before and after FBS) (Neuro2a cells [3]) | effect on tumor growth, 4T1 model (orthotopic 4T1 tumors) | effect on tumor growth, HT1080 model (sc HT1080 tumors) | other results |
| --- | --- | --- | --- | --- | --- | --- | --- |
| Stearyl‐AGYLLGKLLOOLAAAALOOLL‐X‐PLGLAG‐PEG600‐C*RGDKGPDC*‐NH2 (disulfide) [PF144‐iRGD, iRGD‐functionalized PF144] | decreased the tumor specificity; also recorded: reduction in tumor specificity | fully restored to the level of PF14 |  |  |  |  |  |
| Stearyl‐AGYLLGKLLOOLAAAALOOLL‐X‐PLGLAG‐PEG1000‐NH2 [PF145] |  |  | successful in mediating tumor‐specific gene delivery | lowest transfection efficiency after serum treatment |  |  |  |
| Stearyl‐AGYLLGKLLOOLAAAALOOLL‐X‐PLGLAG‐PEG600‐NH2 [PF144] |  |  | efficient tumor specificity; also recorded: successful in mediating tumor‐specific gene delivery | highest stability to serum and heparin treatment out of all the PEGylated peptides |  |  | resistance of pDNA in complexes to heparin displacement (relative PicoGreen fluorescence) [4]: significantly more resistant to heparin treatment than other PEGylated CPPs tested |
| Stearyl‐AGYLLGKLLOOLAAAALOOLL‐X‐PLGLAG‐PEG1000‐C*RGDKGPDC*‐NH2 (disulfide) [PF145‐iRGD, iRGD‐functionalized PF145] | preserved its tumor specificity; also recorded: minimal luciferase induction in healthy tissues | fully restored to the level of PF14 |  |  | performs worse than PF144 | did not translate into efficient tumor treatment | reporter gene induction at different PEGylation rates ([1]; PF145-iRGD/pLuc2 CR4, 20 µg, PEGylation rates 40%, 50%, 70% (rest PF14), iv, 24 h, N=3 per group, Figure S2): 50% being the most effective of the three |
| C*RGDKGPDC*‐NH2 (disulfide) [iRGD, tumor‐homing peptide, αvβ3 integrin targeting ligand, reference compound] |  |  |  |  |  |  | luciferase levels in tissues on coadministration of standalone iRGD with CPP/pLuc2 nanoparticles ([1]; iRGD coadministered (molar amount equal to that of PF14) with PF144 or PF145 nanoparticles, iv, CR4, 0.8 mg/kg plasmid, 24 h, Figure 1C): high luciferase levels in spleen; also recorded: high reporter gene expression in the spleen |
| Stearyl‐AGYLLGKLLOOLAAAALOOLL‐X‐LALGPG‐PEG1000‐C*RGDKGPDC*‐NH2 (disulfide) [PF148‐iRGD] | unable to induce luciferase expression in any tissue | no enzyme‐dependent activation |  |  | no effect on tumor size | no effect on tumor size | cleavability of the MMP-2 sensitive linker by the MMP-2 enzyme [5]: resistant to MMP‐2 degradation |
